Target: T1, human BTK (Homo sapiens, UniProt Q06187)
T1 construct: GST (Glutathione-S-Transferase) (cleaved yes); made in house; host or cells: Spodoptera frugiperda Sf9 cells (baculovirus, Bac-to-Bac)
Experiment: BTK inhibition assay: BTK-mediated phosphorylation of FAM-labeled substrate 5-FAM-EEPLYWSFPAKKK-NH2 (Caliper LC-3000)
Format: biochemical
Settings: pIC50 = -log(IC50), IC50 molar; residues 382 to 659 of human BTK; incubated at room temperature for 60 minutes; larger values represent higher potency
From the text: The activity of compounds as BTK inhibitors may be determined by a variety of methods, including in vitro and in vivo methods.
This construct engineers an in-frame translational fusion with the Glutathione-S-Transferase (GST) protein for use in affinity purification. The fusion protein derived from this construct contains a protease recognition sequence to liberate the BTK from the GST affinity tag. High-titer baculoviral stocks, generated using the Bac-to-Bac® system (Invitrogen), are used to express the recombinant protein in Spodoptera frugiperda Sf9 cells in 10 L Wave bags. Recombinant proteins are isolated from cellular extracts by passage over Glutathione Sepharose 4B (GE Healthcare) and the BTK moiety is released from the GST affinity tag by treatment with PreScission protease. The BTK recombinant protein is further purified by size exclusion chromatography (HiLoad 16/60 Superdex 200, GE Healthcare) in a buffer containing 20 mM Hepes (pH 7.4), 50 mM NaCl, 10 mM MgCl2, 0.25 mM TCEP and 0.1 mM EDTA. The purity of the fractions is assessed by SDS PAGE and the peak protein fractions are pooled and concentrated using Amicon Ultra-15 Centrifugal Filter Devices (Millipore).
The inhibitory properties of compounds relative to BTK is determined using a black 384-well-plate format in a buffer which contains 50 mM Hepes, 10 mM NaCl, 10 mM MgCl2, 0.2 mM EDTA, 0.01% Brij35®, 1 mM DTT, and 0.1 mg/mL BSA at pH 7.3. The test compound is prepared in DMSO using 2-fold serial dilutions for 11 data points, which are added to the buffer so that each dilution contains 3% DMSO. […] The reaction mixtures are incubated at room temperature for 60 minutes and then quenched by adding 25 μL of 50 mM EDTA. To quantify the fluorescent-labeled substrate and product following reaction, the test plate is loaded on a Caliper LC-3000, which measures percent of conversion by microfluidic-based separation.
The compounds were tested in accordance with the assay described on page 34 of the specification.

T1 sequence (Q06187 382-659): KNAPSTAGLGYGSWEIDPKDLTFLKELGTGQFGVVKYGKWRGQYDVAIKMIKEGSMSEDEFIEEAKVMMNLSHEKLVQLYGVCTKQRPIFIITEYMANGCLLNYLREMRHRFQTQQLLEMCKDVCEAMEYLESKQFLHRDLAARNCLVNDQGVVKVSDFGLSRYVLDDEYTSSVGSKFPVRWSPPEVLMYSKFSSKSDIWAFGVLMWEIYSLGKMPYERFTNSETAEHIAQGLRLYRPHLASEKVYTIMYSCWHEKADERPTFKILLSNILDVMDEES

Structure (SMILES)	IC50
Cn1ncc2ccc(-c3cccc4c(N)c(C(N)=O)nnc34)cc21 [Example 1, 4-amino-8-(1-methyl-1H-indazol-6-yl)cinnoline-3-carboxam]	1580 nM
Cn1ncc2cc(-c3cccc4c(N)c(C(N)=O)nnc34)ccc21 [Example 2, 4-amino-8-(1-methyl-1H-indazol-5-yl)cinnoline-3-carboxamide]	158 nM
NC(=O)c1nnc2c(-c3cnc4cc[nH]c4c3)cccc2c1N [Example 3, 4-amino-8-(1H-pyrrolo[3,2-b]pyridin-6-yl)cinnoline-3-carboxamide]	316 nM
NC(=O)c1nnc2c(-c3ccc4nc[nH]c4c3)cccc2c1N [Example 4, 4-amino-8-(1H-benzo[d]imidazol-6-yl)cinnoline-3-carboxamide]	79.4 nM
Cn1ccc2cc(-c3cccc4c(N)c(C(N)=O)nnc34)ccc21 [Example 5, 4-amino-8-(1-methyl-1H-indol-5-yl)cinnoline-3-carboxamide]	3980 nM
NC(=O)c1nnc2c(-c3cc(F)c4c(c3)CC(=O)N4)cccc2c1N [Example 6, 4-amino-8-(7-fluoro-2-oxoindolin-5-yl)cinnoline-3-carboxamide]	3160 nM
CN1CCc2cc(-c3cccc4c(N)c(C(N)=O)nnc34)ccc21 [Example 7, 4-amino-8-(1-methylindolin-5-yl)cinnoline-3-carboxamide]	5010 nM
NC(=O)c1nnc2c(-c3ccc4c(c3)CC(=O)N4)cccc2c1N [Example 8, 4-amino-8-(2-oxoindolin-5-yl)cinnoline-3-carboxamide]	1260 nM
Cn1ccc2ccc(-c3cccc4c(N)c(C(N)=O)nnc34)cc21 [Example 9, 4-amino-8-(1-methyl-1H-indol-6-yl)cinnoline-3-carboxamide]	1000 nM
NC(=O)c1nnc2c(-c3ccc4nccn4c3)cccc2c1N [Example 10, 4-amino-8-(imidazo[1,2-a]pyridin-6-yl)cinnoline-3-carboxamide]	631 nM
Cn1cc2cc(-c3cccc4c(N)c(C(N)=O)nnc34)ccc2n1 [Example 11, 4-amino-8-(2-methyl-2H-indazol-5-yl)cinnoline-3-carboxamide]	1000 nM
Cn1cnc2cc(-c3cccc4c(N)c(C(N)=O)nnc34)ccc21 [Example 12, 4-amino-8-(1-methyl-1H-benzo[d]imidazol-5-yl)cinnoline-3-carboxamide]	15800 nM
Cn1cnc2cc(-c3cccc4c(N)c(C(N)=O)nnc34)cnc21 [Example 13, 4-amino-8-(3-methyl-3H-imidazo[4,5-b]pyridin-6-yl)cinnoline-3-carboxamide]	39800 nM
NC(=O)c1nnc2c(-c3ccc4[nH]c(=O)[nH]c4c3)cccc2c1N [Example 14, 4-amino-8-(2-oxo-2,3-dihydro-1H-benzo[d]imidazol-5-yl)cinnoline-3-carboxamide]	631 nM
Cc1nc2ccc(-c3cccc4c(N)c(C(N)=O)nnc34)cc2[nH]1 [Example 16, 4-amino-8-(2-methyl-1H-benzo[d]imidazol-6-yl)cinnoline-3-carboxamide]	794 nM
CC(C)n1cnc2cc(-c3cccc4c(N)c(C(N)=O)nnc34)ccc21 [Example 17, 4-amino-8-(1-isopropyl-1H-benzo[d]imidazol-5-yl)cinnoline-3-carboxamide]	50100 nM
NC(=O)c1nnc2c(-c3ccc4c(c3)ncn4C3CCCCC3)cccc2c1N [Example 18, 4-amino-8-(1-cyclohexyl-1H-benzo[d]imidazol-5-yl)cinnoline-3-carboxamide]	1260 nM
CC(C)(C)n1cnc2cc(-c3cccc4c(N)c(C(N)=O)nnc34)ccc21 [Example 19, 4-amino-8-(1-tert-butyl-1H-benzo[d]imidazol-5-yl)cinnoline-3-carboxamide]	15800 nM

Structure (SMILES)	IC50
NC(=O)c1nnc2c(-c3ccc4c(c3)NC(=O)C4)cccc2c1N [Example 20, 4-amino-8-(2-oxoindolin-6-yl)cinnoline-3-carboxamide]	39800 nM
Cc1ccc2c(N)c(C(N)=O)nnc2c1-c1cnc2cc[nH]c2c1 [Example 21, 4-amino-7-methyl-8-(1H-pyrrolo[3,2-b]pyridin-6-yl)cinnoline-3-carboxamide]	126 nM
Cc1ccc2c(N)c(C(N)=O)nnc2c1-c1ccc2nc[nH]c2c1 [Example 22, 4-amino-8-(1H-benzo[d]imidazol-6-yl)-7-methylcinnoline-3-carboxamide]	15.8 nM
Cc1ccc2c(N)c(C(N)=O)nnc2c1-c1ccc2ncn(C)c2c1 [Example 23, 4-amino-7-methyl-8-(1-methyl-1H-benzo[d]imidazol-6-yl)cinnoline-3-carboxamide]	50.1 nM
Cc1ccc2c(N)c(C(N)=O)nnc2c1-c1ccc2[nH]ccc2c1 [Example 24, 4-amino-8-(1H-indol-5-yl)-7-methylcinnoline-3-carboxamide]	251 nM
Cc1ccc2c(N)c(C(N)=O)nnc2c1-c1ccc2c(cnn2C)c1 [Example 25, 4-amino-7-methyl-8-(1-methyl-1H-indazol-5-yl)cinnoline-3-carboxamide]	31.6 nM
Cc1ccc2c(N)c(C(N)=O)nnc2c1-c1ccc2cc[nH]c2c1 [Example 26, 4-amino-8-(1H-indol-6-yl)-7-methylcinnoline-3-carboxamide]	158 nM
NC(=O)c1nnc2c(-c3ccc4[nH]ccc4c3)cccc2c1N [Example 27, 4-amino-8-(1H-indol-5-yl)cinnoline-3-carboxamide]	1580 nM
Cc1ccc2c(N)c(C(N)=O)nnc2c1-c1ccc2cn[nH]c2c1 [Example 28, 4-amino-8-(1H-indazol-6-yl)-7-methylcinnoline-3-carboxamide]	7.94 nM
Cc1c(-c2cccc3c(N)c(C(N)=O)nnc23)ccc2c1cnn2C [Example 30, 4-amino-8-(1,4-dimethyl-1H-indazol-5-yl)cinnoline-3-carboxamide]	316 nM
Cc1c(-c2cccc3c(N)c(C(N)=O)nnc23)ccc2[nH]ncc12 [Example 31, 4-amino-8-(4-methyl-1H-indazol-5-yl)cinnoline-3-carboxamide]	39.8 nM
Cc1ccc2c(N)c(C(N)=O)nnc2c1-c1cc(C)c2c(cnn2C)c1 [Example 32, 4-amino-8-(1,7-dimethyl-1H-indazol-5-yl)-7-methylcinnoline-3-carboxamide]	50.1 nM
Cc1ccc2c(N)c(C(N)=O)nnc2c1-c1cc(C)c2[nH]ncc2c1 [Example 33, 4-amino-7-methyl-8-(7-methyl-1H-indazol-5-yl)cinnoline-3-carboxamide]	50.1 nM
Cn1ncc2cc(-c3cc(C(F)(F)F)cc4c(N)c(C(N)=O)nnc34)ccc21 [Example 34, 4-amino-8-(1-methyl-1H-indazol-5-yl)-6-(trifluoromethyl)cinnoline-3-carboxamide]	1580 nM
Cn1ncc2cc(-c3c(C(F)(F)F)ccc4c(N)c(C(N)=O)nnc34)ccc21 [Example 35, 4-amino-8-(1-methyl-1H-indazol-5-yl)-7-(trifluoromethyl)cinnoline-3-carboxamide]	79.4 nM
Cc1ccc2c(N)c(C(N)=O)nnc2c1-c1ccc2c(c1)c(C)nn2C [Example 36, 4-amino-8-(1,3-dimethyl-1H-indazol-5-yl)-7-methylcinnoline-3-carboxamide]	501 nM
Cc1nn(C)c2ccc(-c3cccc4c(N)c(C(N)=O)nnc34)cc12 [Example 37, 4-amino-8-(1,3-dimethyl-1H-indazol-5-yl)cinnoline-3-carboxamide]	3980 nM

Source: US9365566B2 (Takeda Pharmaceutical Company Limited, priority 2012, dated 2016)
